{"source": "patent US20240391940A1", "about": "“FUSED RING-CONTAINING COMPOUND, APPLICATION THEREOF, AND COMPOSITION CONTAINING SAME” (GenEros Biopharma Ltd., priority 2020, published 2024)", "key": {"[1]": {"system": "Apoe KO mouse atherosclerosis model", "assay": "Atherosclerosis model (Apoe KO mice, high-fat diet): blood lipid tests TCHO, TG, LDL-C, HDL-C", "format": "in vivo, C57BL/6 Apoe KO mice", "set-up": "blood lipids (CHO) in Apo E−/− mice / blood lipids (TG) in Apo E−/− mice / blood lipids (HDL-C) in Apo E−/− mice / blood lipids (LDL-C) in Apo E−/− mice: unit not given here", "conditions": "HFD + 284-60 mpk", "experimental": "(§1) Method: Apoe KO mice were tested for basal blood lipid levels and divided into a normal control group and a high-fat group. After 8 weeks of housing, the mice from the high-fat group were divided into 4 groups of about 8: a normal diet group (Chow), a high-fat diet model group (HFD), an Atorvastatin positive group (HFD+atorvastatin 5 mpk, QD), and a GEN1-284s group (284-60 mpk, QD). Oral administration was performed for 8 consecutive weeks, and the effect of the compound on the following indicators in Apoe KO mice was observed: 4 blood lipid tests (TC, TG, HDL-C and LDL-C), aortic plaque En-face staining, and pathological oil red staining of the cardiac outflow tract.\n(§2) Mice from the groups except for the normal diet control group (Chow) were fed with high-fat feed every day for […]. From week 9, each group was orally administered solvent or a corresponding test compound, and body weight data were recorded every day for 8 consecutive weeks. After the first 8 weeks' high-fat diet, blood samples were taken and centrifuged to separate serum, and the serum was tested for blood lipid levels (TCHO, TG, LDL-C and HDL-C). The mice were randomly grouped according to the TCHO results and body weight. During the subsequent 8 weeks of administration, blood lipid tests (TCHO, TG, LDL-C and HDL-C) were run once every 4 weeks.\nMice were fasted overnight, and blood (150 μL) was collected via mandibular blood sampling or eye ball removal (for endpoint only) and left at room temperature for 2 h. The blood was centrifuged at 4° C. at 7000 rpm for 10 min, and serum was pipetted, quick-frozen in dry ice and then stored at −80° C. before analysis. The serum was tested for the biochemical indicators TCHO, TG, LDL-C and HDL-C using kits and a microplate reader."}, "[2]": {"system": "Apoe KO mouse atherosclerosis model", "assay": "Atherosclerosis model: aortic plaque En-face staining and plaque area", "format": "in vivo, C57BL/6 Apoe KO mice", "conditions": "HFD + 284-60 mpk, PO QD 8 W, individual mice; in % (unit assumed)", "experimental": "as §1, §2\nAt the end of the experiment, the mice were euthanized by CO2 inhalation, and their hearts and aortas (from the aortic arch to the iliac artery) were isolated. The isolated artery was dissected longitudinally from the aortic arch to the iliac artery, fixed in 4% paraformaldehyde for 30 min, synchronized with 60% isopropanol for 10 min, then stained in 60% oil red for 30 min, and then washed with 60% isopropanol 3 times for 5 min each time. Finally, the stained aorta was washed with deionized water and photographed. The proportion of red plaque areas was measured using Image Pro Plus 6.0 (Media Cybernetics, MD, US)."}, "[3]": {"system": "IMQ-induced psoriasis mouse model", "assay": "IMQ-induced psoriasis mouse model (PASI scoring)", "format": "in vivo, Balb/c mice", "set-up": "key to skin thickening in psoriasis mice (score) / skin redness in psoriasis mice (score) / skin scaling in psoriasis mice (score): 0 = none to 4 = very severe, per sign", "conditions": "284-30 (30 mpk PO QD)", "experimental": "Method: This experiment used a total of 19 mice. A natural skin observation control (n=1). 2 cm^2 of hair was shaved off the backs of […] on day 0, the stubble was removed with a mild depilatory cream, and the original skin was photographed. 62.5 mg of IMQ was applied to each of the mice. There was a mock group (n=6), a DEX (3 mg/kg, PO., qD) group (n=6), and a GEN1-284s (30 mg/kg, PO, qD) group (n=6). On the day of modeling, administration was performed in a volume of 100 μL/20 g body weight 4 h after IMQ application. The PASI scoring method was used to score the erythema, swelling and scaling on the skin of the mice. The experiment took a total of 6 days. The first day was set to day 0. IMQ application and administration were not performed on day 5. The mice were sacrificed with carbon dioxide at the end of the experiment.\nThe test animals were anesthetized with isoflurane. 2 cm^2 of hair was shaved off the backs of the mice, and the stubble was removed with a depilatory cream. IMQ application was performed for a total of 5 days, from day 0 to day 4. Scoring and IMQ application were performed every morning. Administration was performed in the afternoon\nDesquamation (D): means epidermal cells flake off. The severity scores of skin lesions were as follows: • 0=none; this sign cannot be confirmed by careful observation • 1=mild; this sign can be confirmed but careful observation is required • 2=moderate; this sign is more visible and can be confirmed immediately • 3=severe; this sign is marked. • 4=very severe; this sign is very marked.\nInduration I: 0—skin lesions are at the same level as normal skin; • 1—skin lesions are at slightly higher levels than normal skin surface; • 2—lesions moderately stick out and have round or slope-shaped borders; • 3—skin lesions are thick and markedly stick out; • 4—skin lesions are very thick and very markedly stick out.\nErythema E: • 0—no visible erythema; • 1—light red; • 2—red; • 3—dark red; • 4—the red is very dark"}, "[4]": {"system": "Apoe KO mouse atherosclerosis model", "assay": "Atherosclerosis model: plaques in the cardiac (left ventricular) outflow tract", "format": "in vivo, C57BL/6 Apoe KO mice", "conditions": "HFD + 284-60 mpk, PO QD 8 W, individual mice; in %", "experimental": "as §1, §2\nMouse heart samples were fixed overnight in 4% paraformaldehyde solution and dehydrated in sucrose solution. Then, the samples were embedded with OCT (Sakura, Japan) under a stereo microscope and made into 10 μm frozen sections. The sections were stained with oil red ORO and then subjected to routine pathological examinations. Images of the outflow tract were acquired under an optical microscope at 4× magnification, and high-quality morphological observations were carried out using an eyepiece with 20× magnification. The percentage of intimal lesions in the cardiac outflow tract was calculated. The detection criteria followed the criteria for histological classification of human atherosclerotic disease, which are described in detail below:\nThe area of plaques in the left ventricular outflow tract was measured using a microscope, and the proportion of plaques in the left ventricular outflow tract was calculated; this value reflects the degree of stenosis in the cardiac outflow tract vessel."}, "[5]": {"conditions": "DAY 1, individual mice, 30 mg/kg"}, "[6]": {"conditions": "DAY 2, individual mice, 30 mg/kg"}, "[7]": {"conditions": "DAY 3, individual mice, 30 mg/kg"}, "[8]": {"conditions": "DAY 4, individual mice, 30 mg/kg"}, "[9]": {"conditions": "DAY 5, individual mice, 30 mg/kg"}}, "note": "Where “and” joins values, the source holds several entries; their conditions need not be identical. Equal values may be shown once.", "data": [{"molecule": "O=C(Cc1ccc2ncccc2c1)N1CCC(n2c(=O)n(COP(=O)(O)O)c3cccc(C(F)(F)F)c32)CC1", "note": "[Compound 284]", "values": [{"measurement": "blood lipids (CHO) in Apo E−/− mice", "setting": "[1]; Time 1, individual mice", "result": "0.7986 and 0.8043 and 0.8562 and 0.7873 and 0.8278 and 1.372 and 1.184"}, {"measurement": "blood lipids (HDL-C) in Apo E−/− mice", "setting": "[1]; Time 1, individual mice", "result": "1.371 and 0.5315 and 1.057 and 0.9966 and 1.123 and 1.022 and 1.153"}, {"measurement": "blood lipids (LDL-C) in Apo E−/− mice", "setting": "[1]; Time 1, individual mice", "result": "0.6872 and 1.011 and 0.7654 and 0.5196 and 0.7151 and 1.05 and 1.587"}, {"measurement": "blood lipids (TG) in Apo E−/− mice", "setting": "[1]; Time 1, individual mice", "result": "0.4337 and 0.6308 and 0.6265 and 0.755 and 0.7465 and 0.995 and 1.031"}, {"measurement": "blood lipids (CHO) in Apo E−/− mice", "setting": "[1]; Time 2, individual mice", "result": "1.233 and 0.8693 and 1.165 and 0.9214 and 0.6106 and 1.043 and 0.9931 and 1.18"}, {"measurement": "blood lipids (HDL-C) in Apo E−/− mice", "setting": "[1]; Time 2, individual mice", "result": "2.122 and 0.9935 and 0.9789 and 1.033 and 0.8106 and 1.037 and 1.827 and 1.565"}, {"measurement": "blood lipids (LDL-C) in Apo E−/− mice", "setting": "[1]; Time 2, individual mice", "result": "1.374 and 0.6809 and 2.129 and 1.097 and 0.9183 and 1.393 and 1.144 and 0.9377"}, {"measurement": "blood lipids (TG) in Apo E−/− mice", "setting": "[1]; Time 2, individual mice", "result": "1.051 (2×) and 0.7809 and 1.131 and 1.303 and 1.009 and 1.451 and 1.117"}, {"measurement": "blood lipids (CHO) in Apo E−/− mice", "setting": "[1]; Time 3, individual mice", "result": "1.388 and 0.8444 and 1.354 and 0.78 and 1.427 and 1.407 and 1.241 and 1.477"}, {"measurement": "blood lipids (HDL-C) in Apo E−/− mice", "setting": "[1]; Time 3, individual mice", "result": "2.24 and 0.5362 and 0.9059 and 0.8576 and 1.163 and 1.018 (2×) and 1.067"}, {"measurement": "blood lipids (LDL-C) in Apo E−/− mice", "setting": "[1]; Time 3, individual mice", "result": "1.218 and 0.622 and 1.641 and 0.9017 and 1.494 and 1.215 and 2.628 and 1.406"}, {"measurement": "blood lipids (TG) in Apo E−/− mice", "setting": "[1]; Time 3, individual mice", "result": "0.8373 and 0.8015 and 1.448 and 0.7657 and 0.9226 and 1.222 and 1.943 and 1.2"}, {"measurement": "blood lipids (CHO) in Apo E−/− mice", "setting": "[1]; Time 4, individual mice", "result": "1.59 and 1.257 and 1.396 and 0.4939 and 0.5475 and 1.048 and 1.029 and 1.174"}, {"measurement": "blood lipids (HDL-C) in Apo E−/− mice", "setting": "[1]; Time 4, individual mice", "result": "1.04 and 0.5331 and 1.239 and 0.8199 and 0.5772 and 0.511 and 0.5552 and 1.57"}, {"measurement": "blood lipids (LDL-C) in Apo E−/− mice", "setting": "[1]; Time 4, individual mice", "result": "1.177 and 0.9355 and 0.8511 and 0.1725 and 0.4792 and 1.162 and 1.093 and 0.5061"}, {"measurement": "blood lipids (TG) in Apo E−/− mice", "setting": "[1]; Time 4, individual mice", "result": "1.059 and 0.6674 and 1.093 and 0.7289 and 1.028 and 0.7597 and 1.227 and 1.278"}, {"measurement": "atherosclerotic plaques in mice (proportion of arterial plaque area)", "setting": "[2]", "result": "14.51 and 15.36 and 6.043 and 8.803 and 8.747 and 3.497 and 13.32 and 11.93"}, {"measurement": "overall effect on the skin of psoriasis mice (score)", "setting": "[3]; DAY 0, individual mice", "result": 0}, {"measurement": "skin redness in psoriasis mice (score)", "setting": "[3]; DAY 0, individual mice", "result": 0}, {"measurement": "skin scaling in psoriasis mice (score)", "setting": "[3]; DAY 0, individual mice", "result": 0}, {"measurement": "skin thickening in psoriasis mice (score)", "setting": "[3]; DAY 0, individual mice", "result": 0}, {"measurement": "overall effect on the skin of psoriasis mice (score)", "setting": "[3]; [5]", "result": "1.667 and 1.167 and 1 and 2.333 and 2 and 0.6667"}, {"measurement": "skin redness in psoriasis mice (score)", "setting": "[3]; [5]", "result": "1 and 0.6667 and 0.8333 and 0.5 and 1.167 and 0"}, {"measurement": "skin scaling in psoriasis mice (score)", "setting": "[3]; [5]", "result": "0.1667 (3×) and 0 and 0.8333 and 0.3333"}, {"measurement": "skin thickening in psoriasis mice (score)", "setting": "[3]; [5]", "result": "0.5 (4×) and 0 and 1"}, {"measurement": "overall effect on the skin of psoriasis mice (score)", "setting": "[3]; [6]", "result": "1.5 (2×) and 2 and 1.333 and 2.333 (2×)"}, {"measurement": "skin redness in psoriasis mice (score)", "setting": "[3]; [6]", "result": "0.8333 and 1 and 0.5 (2×) and 0.3333 and 0.1667"}, {"measurement": "skin scaling in psoriasis mice (score)", "setting": "[3]; [6]", "result": "0.1667 and 0.5 and 0.3333 and 0.8333 (2×) and 1"}, {"measurement": "skin thickening in psoriasis mice (score)", "setting": "[3]; [6]", "result": "0.5 (4×) and 1 (2×)"}, {"measurement": "overall effect on the skin of psoriasis mice (score)", "setting": "[3]; [7]", "result": "3.333 (3×) and 2.333 and 2.5 and 2.167"}, {"measurement": "skin redness in psoriasis mice (score)", "setting": "[3]; [7]", "result": "1 (2×) and 0.8333 (2×) and 0.6667 and 0.5"}, {"measurement": "skin scaling in psoriasis mice (score)", "setting": "[3]; [7]", "result": "0.8333 and 0.5 and 1.833 and 0.6667 (2×) and 1.167"}, {"measurement": "skin thickening in psoriasis mice (score)", "setting": "[3]; [7]", "result": "1.5 (2×) and 1 (3×) and 0.5"}, {"measurement": "overall effect on the skin of psoriasis mice (score)", "setting": "[3]; [8]", "result": "2.667 and 3.667 (2×) and 2.833 (2×) and 3"}, {"measurement": "skin redness in psoriasis mice (score)", "setting": "[3]; [8]", "result": "1.333 and 1 (2×) and 0.6667 and 1.167 and 0.8333"}, {"measurement": "skin scaling in psoriasis mice (score)", "setting": "[3]; [8]", "result": "1.333 and 1.667 and 1.167 and 1 and 1.5 (2×)"}, {"measurement": "skin thickening in psoriasis mice (score)", "setting": "[3]; [8]", "result": "0 and 1 (4×) and 0.5"}, {"measurement": "overall effect on the skin of psoriasis mice (score)", "setting": "[3]; [9]", "result": "3 (2×) and 2.667 and 4.333 and 3.5 (2×)"}, {"measurement": "skin redness in psoriasis mice (score)", "setting": "[3]; [9]", "result": "1.5 and 0.6667 (3×) and 1 and 0.5"}, {"measurement": "skin scaling in psoriasis mice (score)", "setting": "[3]; [9]", "result": "1.5 and 1 and 2.333 and 1.333 and 1.833 and 2.5"}, {"measurement": "skin thickening in psoriasis mice (score)", "setting": "[3]; [9]", "result": "0 and 1 (4×) and 0.5"}, {"measurement": "plaques in the cardiac outflow tracts of mice (proportion of plaques in the left ventricular outflow tract)", "setting": "[4]", "result": "3.172 and 8.444 and 8.652 and 1.278 and 0.625 and 2.394 and 7.368"}]}]}
